Reference: US7767789B2, “Truncated proteins as cancer markers” (University Hopitals of Cleveland, priority 2005, dated 2010)

Experiments:
[1] = tested on: HEK-293 cells (wild-type, expressing P2X7 or P2X7-j); experiment: Cell-number index of HEK-293 cells grown in culture; format: cell-based, human; conditions: 100 micromolar BzATP
Description: Alterations in cell number for HEK-293 cells, HEK-293 cells expressing P2X7-RFL, and HEK-293 cells expressing P2X7-RTR grown in culture were studied. FIG. 15A. The three cells lines were grown in culture and viable cells were counted for a period of 3 days. The data are presented as cell number index versus days in culture. […] For example, a P2X7-RFL receptor protein may facilitate cellular apoptosis (infra).
The cell number of wild-type HEK-293 cells and of HEK-293 cells expressing P2X7-j protein increased to a greater degree than that of HEK-293 cells expressing the P2X7 protein. FIG. 15A.

HEK-293-P2X7 cells = experiment: Apoptosis, Cell Death Detection ELISA-PLUS, HEK-293 cells; format: cell-based, human; conditions: BzATP 50 micromolar
Description: (§1) Baseline and BzATP-induced apoptosis in MDCK cells and in HEK-293 cells expressing P2X7 and P2X7-j proteins were studied. FIG. 17. […] Cells were treated with BzATP (50 micromolar) to activate the P2X7 receptors. Apoptosis was quantified using Cell Death Detection ELISA-PLUS photometric enzyme-immunoassay that determines cytoplasmic histone-associated-DNA-fragments (mono and oligonucleosomes) after spontaneous or induced cell death (Roche, Cat. No. 1774425, 96 tests). […] Expression of the P2X7-j proteins either had no effect (HEK-293 cells) or may have decreased apoptosis (MDCK cells).

[2] = biological target: T1, P2X7 channel (HEK-293 cells expressing P2X7 or P2X7-j) (Homo sapiens, UniProt Q99572, R270H/Y155H); format: cell-based; conditions: HEK-293-P2X7 cells; 100 micromolar BzATP
T1 construct: expressed in transfected cells; host or cells: HEK-293
T1 sequence (Q99572 whole entry Y155H/R270H): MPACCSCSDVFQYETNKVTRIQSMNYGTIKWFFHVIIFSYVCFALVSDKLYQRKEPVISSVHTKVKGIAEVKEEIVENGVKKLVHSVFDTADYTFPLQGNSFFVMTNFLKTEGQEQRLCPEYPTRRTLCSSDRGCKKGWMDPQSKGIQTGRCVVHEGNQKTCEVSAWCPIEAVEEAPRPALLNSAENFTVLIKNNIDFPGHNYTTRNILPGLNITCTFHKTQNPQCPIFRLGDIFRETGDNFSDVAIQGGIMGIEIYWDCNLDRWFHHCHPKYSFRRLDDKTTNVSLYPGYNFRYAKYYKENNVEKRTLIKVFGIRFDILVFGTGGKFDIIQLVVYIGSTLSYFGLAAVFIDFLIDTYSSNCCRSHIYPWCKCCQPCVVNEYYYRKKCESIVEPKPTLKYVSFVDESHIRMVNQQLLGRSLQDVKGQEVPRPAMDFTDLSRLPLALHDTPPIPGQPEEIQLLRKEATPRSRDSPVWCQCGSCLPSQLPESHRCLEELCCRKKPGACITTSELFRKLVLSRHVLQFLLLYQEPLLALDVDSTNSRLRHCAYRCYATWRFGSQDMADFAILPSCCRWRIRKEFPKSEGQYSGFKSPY

[3] = tested on: P2X7 channel (HEK-293 cells expressing P2X7 or P2X7-j); format: cell-based, human; conditions: P2X7 plus P2X7-j HEK-293 cells compared to P2X7 HEK-293 cells
[4] = biological target: T2, P2X7 channel (HEK-293 cells expressing P2X7 or P2X7-j) (Homo sapiens, UniProt Q99572, Y155H); format: cell-based; conditions: HEK-293-P2X7-j cells compared to HEK-293-P2X7 cells
T2 construct: expressed in transfected cells; host or cells: HEK-293
T2 sequence (Q99572 1-258 isoform Q99572-9 Y155H): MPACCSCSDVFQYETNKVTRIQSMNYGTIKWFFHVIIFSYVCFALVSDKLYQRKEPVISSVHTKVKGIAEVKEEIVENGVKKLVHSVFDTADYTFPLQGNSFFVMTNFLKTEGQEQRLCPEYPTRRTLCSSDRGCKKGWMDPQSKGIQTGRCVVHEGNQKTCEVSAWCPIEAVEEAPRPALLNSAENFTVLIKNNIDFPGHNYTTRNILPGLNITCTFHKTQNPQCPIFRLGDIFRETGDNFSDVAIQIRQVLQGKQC

CaSki cells = experiment: DNA solubilization assay (apoptosis); format: cell-based, human
Description: Twenty-four hours before the end of the experiment, cells were labeled with [^3H]thymidine (specific activity, 93 Ci/mmol; 5 μCi/1×10^6 cells) for 16 h. The medium was removed, and cells were washed three times with fresh medium lacking [^3H]thymidine and were incubated in the same medium for an additional 6 h. At the end of incubation, the supernatant was stored, and cells were lysed in 0.5 ml lysis buffer (10 mM Tris-HCl, pH 7.5; plus 1 mM EDTA-0.2% Triton X-100) for 1 h at 4° C. The intact chromatin was separated from the fragmented DNA by 5 min centrifugation at 4° C. in Eppendorf microcentrifuge at 12,000×g. The supernatant (lysate) was stored, while the pellet was resuspended in 0.5 ml of 1% sodium dodecyl sulfate (SDS). The radioactivity contained in the supernatants, lysates; and pellets was counted in a scintillation counter, and DNA fragmentation was calculated as: [% Solubilized DNA]=([cpm supernatant+cpm lysates]/[cpm supernatant+cpm lysate+cpm pellet])×100.

MDCK-P2X7 cells = experiment: Apoptosis, Cell Death Detection ELISA-PLUS, MDCK cells; format: cell-based, canine; conditions: doxycycline treated MDCK-P2X7 cells; BzATP 50 micromolar
Description: as §1

[5] = tested on: P2X7-mediated pore (HEK-293 cells expressing P2X7 or P2X7-j); format: cell-based, human; conditions: P2X7 plus P2X7-j HEK-293 cells compared to P2X7 HEK-293 cells
[6] = biological target: T3, P2X7-mediated pore (HEK-293 cells expressing P2X7 or P2X7-j) (Homo sapiens, UniProt Q99572, Y155H); format: cell-based; conditions: HEK-293-P2X7-j cells compared to HEK-293-P2X7 cells
T3 construct: expressed in transfected cells; host or cells: HEK-293
T3 sequence (Q99572 1-258 isoform Q99572-9 Y155H): as above

[7] = biological target: T4, P2X7-mediated pore (HEK-293 cells expressing P2X7 or P2X7-j) (Homo sapiens, UniProt Q99572, R270H/Y155H); format: cell-based; conditions: HEK-293-P2X7 cells; BzATP 100 micromolar
T4 construct: expressed in transfected cells; host or cells: HEK-293
T4 sequence (Q99572 whole entry Y155H/R270H): as the sequence (Q99572 whole entry Y155H/R270H) above

Substance: 2′-3′-O-(4-benzoylbenzoyl)adenosine 5′-triphosphate [BzATP]
- growth of cells (cell number) ([1]; HEK-293-P2X7-j cells): no significant effect
- growth of cells (cell number) ([1]; HEK-293-P2X7 cells): significantly decreased further the growth
- growth of cells (cell number) ([1]; wild-type HEK-293 cells): no significant effect
- apoptosis (HEK-293-P2X7 cells): further increased this baseline apoptosis
- Fluo-4 signal (cytosolic calcium) [2]: increased acutely the Fluo-4 signal
- calcium response to BzATP [3]: significantly smaller
- calcium response to BzATP [4]: significantly smaller
- DNA solubilization (CaSki cells; 100 μM BzATP for 9 h, baseline 1.9%): 7.8%
- DNA solubilization (CaSki cells; 100 μM BzATP for 9 h or 10 μM TNFα for 14 h): significantly increased DNA solubilization
- apoptosis (MDCK-P2X7 cells): increased apoptosis
- ethidium bromide response to BzATP [5]: significantly smaller
- ethidium bromide signaling response to BzATP [6]: significantly smaller
- ethidium bromide signaling (pore) [7]: increased ethidium bromide signaling
